Data on ten compounds can be found in patent US20260049101A1, “TOPICAL TREATMENT OF SKIN CANCER USING OLIGOPEPTIDES” (BACOBA AG, priority 2022, published 2026).

Numbered stars: 1 amine (or outer) side, 2 acyl side, 3 side chain; on linkers, the order of the positions; unused ones are H or OH. Square brackets hold non-standard residues; d marks the D form. Peptide text beside a SMILES is read from it. * marks the point of attachment. X5 = O=C([C@H](Cc1nc2ccc(F)cc2s1)N[*:1])[*:2]; X7 = O=C([C@H](Cc1nc2ccccc2o1)N[*:1])[*:2]; Abu(4,4,4-F3) = N[C@@H](CC(F)(F)F)C(=O)O; X4 = C[C@](N[*:1])(C(=O)[*:2])C(F)(F)F; NH(1-CH2NMe2-cBu) = CN(C)CC1(N*)CCC1; Gly(octyl) = CCCCCCCC[C@H](N)C(=O)O; Oxazole4CO(2-Me) = Cc1nc(C(=O)*)co1; Benzoyl(4-F) = O=C(c1ccc(F)cc1)*; hCha = N[C@@H](CCC1CCCCC1)C(=O)O; X6 = CC(C)(CN[*:1])C(=O)[*:2]; β3hL = CC(C)C[C@H](N)CC(=O)O; NHCH2CH2NMe2 = CN(C)CCN*; NHCH2CH2NHMe = CNCCN*; Aib = CC(C)(N)C(=O)O; βAla = NCCC(=O)O

The subject of this test is cutaneous squamous cell carcinoma cell line SCC12. In words: In vitro anti-proliferative assay (resazurin) in SCC12. In kind it is cell-based. Conditions: SCC12, 72 hours. The source says:
Methodology. The cutaneous squamous cell carcinoma cell culture SCC12 was cultivated in keratinocyte-SFM media (KSFM, Cat #17005042, Gibco) supplemented with human recombinant epidermal growth factor 1-53 (EGF 1-53) and bovine pituitary extract (BFE).
Vehicle treated wells were set to 100% viability.
In the case of `CCCCCCCC[C@H](NC(=O)[C@@H]1CCCN1C(=O)c1coc(C)n1)C(=O)N[C@@H](CC(C)C)C(=O)NC(C)(C)C(=O)N[C@@H](CC(C)C)C(=O)N[C@@H](CC(C)C)C(=O)NC(C)(C)C(=O)NC(C)(C)C(=O)NCCC(=O)NCCNC` [Compound 7058, (2S)-2-{[(2S)-1-(2-methyl-1,3-oxazole-4-carbonyl)pyrrolidin-2-yl]formamido}-N-[(1S)-3-methyl-1-[(1-methyl-1-{[(1S)-3-methyl-1-{[(1S)-3-methyl-1-{[1-methyl-1-({1-methyl-1-[(2-{[2-(methylamino)ethyl]carbamoyl}ethyl)carbamoyl]ethyl}carbamoyl)ethyl]carbamoyl}butyl]carbamoyl}butyl]carbamoyl}ethyl)carbamoyl]butyl]decanamide] ({Oxazole4CO(2-Me)}-P[Gly(octyl)]L[Aib]LL[Aib][Aib][βAla]-NHCH2CH2NHMe), 717 nM corresponded to half-maximal inhibition (IC50). This counts as sub-micromolar.
Turning to `CC(C)C[C@H](NC(=O)[C@H](CCC1CCCCC1)NC(=O)[C@@H]1CCCN1C(=O)c1ccc(F)cc1)C(=O)NC(C)(C)C(=O)N[C@@H](CC(C)C)C(=O)N[C@@H](CC(F)(F)F)C(=O)NC(C)(C)C(=O)NC(C)(C)C(=O)NCCC(=O)NC1(CN(C)C)CCC1` [Compound 21369, (2S)-2-[(2S)-4-cyclohexyl-2-{[(2S)-1-(4-fluorobenzoyl)-pyrrolidin-2-yl]formamido}butan-amido]-N-(1-{[(1S)-1-{[(1S)-1-({1-[(1-{[2-({1-[(dimethylamino)methyl]cyclobutyl}carba-moyl)ethyl]carbamoyl}-1-methylethyl)carbamoyl]-1-methylethyl}carbamoyl)-3,3,3-trifluoropropyl]carbamoyl}-3-methylbutyl]carbamoyl}-1-methylethyl)-4-methylpentanamide] ({Benzoyl(4-F)}-P[hCha]L[Aib]L[Abu(4,4,4-F3)][Aib][Aib][βAla]-{NH(1-CH2NMe2-cBu)}), the IC50 (usually the midpoint of a concentration-inhibition curve) was 167 nM.
`CC(C)C[C@H](NC(=O)[C@H](Cc1nc2ccc(F)cc2s1)NC(=O)[C@@H]1CCCN1C(=O)c1ccc(F)cc1)C(=O)NC(C)(C)C(=O)N[C@@H](CC(C)C)C(=O)N[C@@H](CC(C)C)C(=O)NC(C)(C)C(=O)NC(C)(C)C(=O)NCCC(=O)NC1(CN(C)C)CCC1` [Compound 7848, (2S)—N-(1-{[(1S)-1-{[(1S)-1-({1-[(1-{[2-({1-[(dimethylamino)methyl]cyclobutyl}carbamoyl)ethyl]carbamoyl}-1-methylethyl)carbamoyl]-1-methylethyl}carbamoyl)-3-methylbutyl]carbamoyl}-3-methylbutyl]carbamoyl}-1-methylethyl)-2-[(2S)-3-(6-fluoro-1,3-benzothiazol-2-yl)-2-{[(2S)-1-(4-fluorobenzoyl)pyrrolidin-2-yl]formamido}propanamido]-4-methylpentanamide] ({Benzoyl(4-F)}-P[X5]L[Aib]LL[Aib][Aib][βAla]-{NH(1-CH2NMe2-cBu)}): the IC50 amounted to 182 nM. This IC50 and that of the compound before are within 1.5-fold of each other.
Then `Cc1nc(C(=O)N2CCC[C@H]2C(=O)N[C@@H](CCC2CCCCC2)C(=O)N[C@@H](CC(C)C)C(=O)NC(C)(C)C(=O)N[C@@H](CC(C)C)C(=O)N[C@@H](CC(C)C)C(=O)NC(C)(C)C(=O)NC(C)(C)C(=O)NCCC(=O)NC2(CN(C)C)CCC2)co1` [Compound 6025, (2S)-2-[(2S)-4-cyclohexyl-2-{[(2S)-1-(2-methyl-1,3-oxazole-4-carbonyl)pyrrolidin-2-yl]formamido}butanamido]-N-(1-{[(1S)-1-{[(1S)-1-({1-[(1-{[2-({1-[(dimethylamino)methyl]cyclobutyl}carbamoyl)ethyl]carbamoyl}-1-methylethyl)carbamoyl]-1-methylethyl}carbamoyl)-3-methylbutyl]carbamoyl}-3-methylbutyl]carbamoyl}-1-methylethyl)-4-methylpentanamide] ({Oxazole4CO(2-Me)}-P[hCha]L[Aib]LL[Aib][Aib][βAla]-{NH(1-CH2NMe2-cBu)}), with 396 nM.
Compound `CC(C)C[C@@H](CC(=O)NC(C)(C)C(=O)N[C@@H](CC(C)C)C(=O)N[C@@H](CC(C)C)C(=O)NC(C)(C)C(=O)NC(C)(C)C(=O)NCCC(=O)NC1(CN(C)C)CCC1)NC(=O)[C@H](CCC1CCCCC1)NC(=O)[C@@H]1CCCN1C(=O)c1ccc(F)cc1` [Compound 21314, (3S)-3-[(2S)-4-cyclohexyl-2-{[(2S)-1-(4-fluorobenzoyl)pyrrolidin-2-yl]formamido}butan-amido]-N-(1-{[(1S)-1-{[(1S)-1-({1-[(1-{[2-({1-[(dimethylamino)methyl]cyclobutyl}carba-moyl)ethyl]carbamoyl}-1-methylethyl)carbamoyl]-1-methylethyl}carbamoyl)-3-methylbutyl]carbamoyl}-3-methylbutyl]carbamoyl}-1-methylethyl)-5-methylhexanamide] ({Benzoyl(4-F)}-P[hCha][β3hL][Aib]LL[Aib][Aib][βAla]-{NH(1-CH2NMe2-cBu)}) yielded a half-inhibitory concentration (IC50) of 324 nM.
Turning to `CC(C)C[C@H](NC(=O)[C@H](Cc1nc2ccccc2o1)NC(=O)[C@@H]1CCCN1C(=O)c1ccc(F)cc1)C(=O)NC(C)(C)C(=O)N[C@@H](CC(C)C)C(=O)N[C@@H](CC(C)C)C(=O)NC(C)(C)C(=O)NC(C)(C)C(=O)NCCC(=O)NC1(CN(C)C)CCC1` [Compound 7850, (2S)-2-[(2S)-3-(1,3-benzoxazol-2-yl)-2-{[(2S)-1-(4-fluorobenzoyl)pyrrolidin-2-yl]formamido}propanamido]-N-(1-{[(1S)-1-{[(1S)-1-({1-[(1-{[2-({1-[(dimethylamino)methyl]cyclobutyl}carbamoyl)ethyl]carbamoyl}-1-methylethyl)carbamoyl]-1-methylethyl}carbamoyl)-3-methylbutyl]carbamoyl}-3-methylbutyl]carbamoyl}-1-methylethyl)-4-methylpentanamide] ({Benzoyl(4-F)}-P[X7]L[Aib]LL[Aib][Aib][βAla]-{NH(1-CH2NMe2-cBu)}), the 50% inhibitory concentration (IC50) turned out to be 1040 nM.
As for `CC(C)C[C@H](NC(=O)[C@H](CCC1CCCCC1)NC(=O)[C@@H]1CCCN1C(=O)c1ccc(F)cc1)C(=O)NC(C)(C)C(=O)N[C@@H](CC(C)C)C(=O)N[C@@H](CC(C)C)C(=O)NC(C)(C)C(=O)NC(C)(C)C(=O)NCCC(=O)NCCN(C)C` [Compound 8343, (2S)-2-[(2S)-4-cyclohexyl-2-{[(2S)-1-(4-fluorobenzoyl)pyrrolidin-2-yl]formamido}butanamido]-N-(1-{[(1S)-1-{[(1S)-1-{[1-({1-[(2-{[2-(dimethylamino)ethyl]carbamoyl}ethyl)carbamoyl]-1-methylethyl}carbamoyl)-1-methylethyl]carbamoyl}-3-methylbutyl]carbamoyl}-3-methylbutyl]carbamoyl}-1-methylethyl)-4-methylpentanamide] ({Benzoyl(4-F)}-P[hCha]L[Aib]LL[Aib][Aib][βAla]-NHCH2CH2NMe2), the concentration for half-maximal inhibition (IC50) was determined as 241 nM.
Take `CC(C)C[C@@H](CC(=O)NC(C)(C)C(=O)NC(C)(C)C(=O)NCCC(=O)NC1(CN(C)C)CCC1)NC(=O)C[C@H](CC(C)C)NC(=O)C(C)(C)NC(=O)C[C@H](CC(C)C)NC(=O)[C@H](CCC1CCCCC1)NC(=O)[C@@H]1CCCN1C(=O)c1ccc(F)cc1` [Compound 21315, (3S)-3-[(2S)-4-cyclohexyl-2-{[(2S)-1-(4-fluorobenzoyl)pyrrolidin-2-yl]formamido}butanamido]-N-(1-{[(2S)-1-{[(2S)-1-({1-[(1-{[2-({1-[(dimethylamino)methyl]cyclobutyl}carbamoyl)ethyl]carbamoyl}-1-methylethyl)carbamoyl]-1-methylethyl}carbamoyl)-4-methylpentan-2-yl]carbamoyl}-4-methylpentan-2-yl]carbamoyl}-1-methylethyl)-5-methylhexanamide] ({Benzoyl(4-F)}-P[hCha][β3hL][Aib][β3hL][β3hL][Aib][Aib][βAla]-{NH(1-CH2NMe2-cBu)}): the IC50 came out at 3100 nM.
Consider `CC(C)C[C@H](NC(=O)[C@H](CC(C)C)NC(=O)C(C)(C)NC(=O)[C@H](CC(C)C)NC(=O)[C@H](CCC1CCCCC1)NC(=O)[C@@H]1CCCN1C(=O)c1ccc(F)cc1)C(=O)NC(C)(C)C(=O)NCC(C)(C)C(=O)NCCC(=O)NC1(CN(C)C)CCC1` [Compound 21164, (2S)-2-[(2S)-4-cyclohexyl-2-{[(2S)-1-(4-fluorobenzoyl)pyrrolidin-2-yl]formamido}butan-amido]-N-(1-{[(1S)-1-{[(1S)-1-({1-[(2-{[2-({1-[(dimethylamino)methyl]cyclobutyl}carba-moyl)ethyl]carbamoyl}-2,2-dimethylethyl)carbamoyl]-1-methylethyl}carbamoyl)-3-methylbutyl]carbamoyl}1-3-methylbutyl]carbamoyl}-1-methylethyl)-4-methylpentanamide] ({Benzoyl(4-F)}-P[hCha]L[Aib]LL[Aib][X6][βAla]-{NH(1-CH2NMe2-cBu)}), for which half-maximal inhibition (IC50) was put at 712 nM.
Take `CC(C)C[C@H](NC(=O)[C@H](CC(C)C)NC(=O)[C@](C)(NC(=O)[C@H](CC(C)C)NC(=O)[C@H](CCC1CCCCC1)NC(=O)[C@@H]1CCCN1C(=O)c1ccc(F)cc1)C(F)(F)F)C(=O)NC(C)(C)C(=O)NC(C)(C)C(=O)NCCC(=O)NC1(CN(C)C)CCC1` [Compound 21362, (2S)-2-[(2S)-4-cyclohexyl-2-{[(2S)-1-(4-fluorobenzoyl)pyrrolidin-2-yl]formamido}butanamido]-N-[(1S)-1-{[(1S)-1-{[(1S)-1-({1-[(1-{[2-({1-[(dimethylamino)methyl]cyclobutyl}carbamoyl)ethyl]carbamoyl}-1-methylethyl)carbamoyl]-1-methylethyl}carbamoyl)-3-methylbutyl]carbamoyl}-3-methylbutyl]carbamoyl}-2,2,2-trifluoro-1-methylethyl]-4-methylpentanamide] ({Benzoyl(4-F)}-P[hCha]L[X4]LL[Aib][Aib][βAla]-{NH(1-CH2NMe2-cBu)}): the IC50 worked out at 717 nM.
